Source: ChEMBL document CHEMBL1201862, “PubChem BioAssay data set” (2004)
Calls of active or inactive are those of the source.

Tests used:
[1] = biological target: Delta-type opioid receptor (Homo sapiens, UniProt P41143); assay: Counterscreen for agonists of heterodimerization of the mu 1 (OPRM1) and delta 1 (OPRD1) opioid receptors: Luminescence-based cell-based high throughput dose response assay to identify agonists of OPRD1 homodimerization. [Related pubchem assays (depositor defined):AID504326, AID504355, AID504692, AID504904, AID504905]; type: functional
Delta-type opioid receptor, sequence (P41143 whole entry): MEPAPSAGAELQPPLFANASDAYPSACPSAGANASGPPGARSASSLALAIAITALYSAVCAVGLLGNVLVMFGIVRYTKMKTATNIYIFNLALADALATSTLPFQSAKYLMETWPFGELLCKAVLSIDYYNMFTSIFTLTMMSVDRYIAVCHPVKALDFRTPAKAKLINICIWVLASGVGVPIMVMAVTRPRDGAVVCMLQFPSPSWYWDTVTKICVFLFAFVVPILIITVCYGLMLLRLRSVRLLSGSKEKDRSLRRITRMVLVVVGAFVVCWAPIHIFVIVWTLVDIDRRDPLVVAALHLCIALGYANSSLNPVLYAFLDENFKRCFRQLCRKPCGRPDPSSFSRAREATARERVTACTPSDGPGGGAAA

Mu-type opioid receptor = Mu-type opioid receptor (Homo sapiens, UniProt P35372); assay: Counterscreen for agonists of heterodimerization of the mu 1 (OPRM1) and delta 1 (OPRD1) opioid receptors: Luminescence-based cell-based high throughput dose response assay to identify agonists of OPRM1 homodimerization.; type: functional;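 further: U2OS cells expressing OPRM1 and beta-arrestin as split beta-galactosidase partners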
Mu-type opioid receptor, sequence (P35372 whole entry): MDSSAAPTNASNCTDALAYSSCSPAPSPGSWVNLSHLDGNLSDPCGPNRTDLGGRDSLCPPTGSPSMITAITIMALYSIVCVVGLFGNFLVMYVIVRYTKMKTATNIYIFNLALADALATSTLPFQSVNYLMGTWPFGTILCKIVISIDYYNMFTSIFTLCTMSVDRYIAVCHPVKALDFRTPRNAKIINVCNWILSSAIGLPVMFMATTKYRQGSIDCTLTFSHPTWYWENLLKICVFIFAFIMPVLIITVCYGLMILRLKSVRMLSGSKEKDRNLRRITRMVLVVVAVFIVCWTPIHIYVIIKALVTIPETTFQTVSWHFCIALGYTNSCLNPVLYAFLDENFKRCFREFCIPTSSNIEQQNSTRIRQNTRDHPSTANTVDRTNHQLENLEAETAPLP

[2] = biological target: 5-hydroxytryptamine receptor 5A (Homo sapiens, UniProt P47898); assay: Counterscreen for agonists of OPRM1-OPRD1 heterodimerization: luminescence-based cell-based high throughput dose response assay to identify agonists of 5-hydroxytryptamine (serotonin) 5A receptor (HTR5A). [Related pubchem assays (depositor defined):AID504326, AID504355, AID504692, AID504904, AID504905]; type: functional
5-hydroxytryptamine receptor 5A, sequence (P47898 whole entry): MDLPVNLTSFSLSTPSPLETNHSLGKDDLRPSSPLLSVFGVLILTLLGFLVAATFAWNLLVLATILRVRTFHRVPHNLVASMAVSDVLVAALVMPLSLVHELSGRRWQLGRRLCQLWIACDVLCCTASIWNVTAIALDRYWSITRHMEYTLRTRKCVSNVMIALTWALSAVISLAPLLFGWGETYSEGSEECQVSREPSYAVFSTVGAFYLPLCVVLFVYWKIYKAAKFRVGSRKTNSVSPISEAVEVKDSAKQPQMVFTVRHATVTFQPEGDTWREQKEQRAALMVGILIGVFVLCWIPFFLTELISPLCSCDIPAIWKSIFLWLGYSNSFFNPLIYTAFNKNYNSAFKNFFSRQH

[3] = biological target: Induced myeloid leukemia cell differentiation protein Mcl-1 (Homo sapiens, UniProt Q07820); type: functional
Induced myeloid leukemia cell differentiation protein Mcl-1, sequence (Q07820 whole entry, the tested form may be a part): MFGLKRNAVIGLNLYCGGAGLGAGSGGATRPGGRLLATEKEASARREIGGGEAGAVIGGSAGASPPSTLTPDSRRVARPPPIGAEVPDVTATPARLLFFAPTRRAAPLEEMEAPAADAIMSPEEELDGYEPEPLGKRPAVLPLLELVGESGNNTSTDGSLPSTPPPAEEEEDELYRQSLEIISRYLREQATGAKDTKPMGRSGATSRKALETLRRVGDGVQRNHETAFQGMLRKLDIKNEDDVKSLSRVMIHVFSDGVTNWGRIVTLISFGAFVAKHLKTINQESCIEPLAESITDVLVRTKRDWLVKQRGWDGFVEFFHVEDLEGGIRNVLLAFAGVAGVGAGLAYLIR

[4] = biological target: T1, Carboxy-terminal domain RNA polymerase II polypeptide A small phosphatase 1 (Homo sapiens, UniProt Q9GZU7); assay: inhibitors of CTDSP1, concentration-response testing, biochemical assay, absorbance-based, actives from ultra-high-throughput screening (AID 540297); type: functional
T1 sequence (Q9GZU7 whole entry): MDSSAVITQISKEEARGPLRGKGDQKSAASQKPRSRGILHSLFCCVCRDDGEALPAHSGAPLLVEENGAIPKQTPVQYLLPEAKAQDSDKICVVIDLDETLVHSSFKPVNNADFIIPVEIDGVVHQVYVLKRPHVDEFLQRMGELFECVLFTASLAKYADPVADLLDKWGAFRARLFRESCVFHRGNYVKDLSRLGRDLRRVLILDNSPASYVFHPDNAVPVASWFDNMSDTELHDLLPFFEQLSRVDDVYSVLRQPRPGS

Cysteine protease ATG4B = biological target: T2, Cysteine protease ATG4B (Homo sapiens, UniProt Q9Y4P1); type: functional;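 further: Fluorescence-based dose-response confirmation assay measuring inhibition of ATG4B activity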
T2 sequence (Q9Y4P1 whole entry): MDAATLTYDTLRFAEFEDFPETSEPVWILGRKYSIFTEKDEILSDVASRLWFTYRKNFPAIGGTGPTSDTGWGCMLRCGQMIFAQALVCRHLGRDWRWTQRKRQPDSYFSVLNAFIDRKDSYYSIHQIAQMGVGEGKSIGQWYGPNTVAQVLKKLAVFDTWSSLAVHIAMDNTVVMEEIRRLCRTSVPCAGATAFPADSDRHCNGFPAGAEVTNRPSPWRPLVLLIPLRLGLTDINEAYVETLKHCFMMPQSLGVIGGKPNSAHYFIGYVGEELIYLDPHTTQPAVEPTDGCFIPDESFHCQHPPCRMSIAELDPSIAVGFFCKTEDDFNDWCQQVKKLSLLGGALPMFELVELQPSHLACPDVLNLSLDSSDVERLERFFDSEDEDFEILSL

Phospholipase A2 = Phospholipase A2 (Homo sapiens, UniProt P04054); type: functional;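 further: confirmatory dose-response counterscreen on phospholipase A2, testing hits that came from an ultra-high-throughput screen for ATG4B inhibitors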
Phospholipase A2, sequence (P04054 whole entry): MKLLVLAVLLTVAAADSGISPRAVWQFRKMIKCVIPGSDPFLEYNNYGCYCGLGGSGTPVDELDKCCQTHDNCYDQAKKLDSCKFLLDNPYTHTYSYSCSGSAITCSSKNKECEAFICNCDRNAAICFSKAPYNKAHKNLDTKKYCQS

[5] = cytotoxicity in HMLE control line with eGFP shRNA, dose response, counter-screen for HMLE_sh_ECad selective toxicity project, cell-based, HMLE_sh_eGFP, luminescence (AID 463074); type: functional, Homo sapiens;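 further: HMLE human mammary epithelial cells expressing control shRNA against eGFP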
[6] = Luminescence Cell-Based Dose Retest to Confirm Inhibitors of Cancer Stem Cells. [Related pubchem assays (depositor defined):AID2717, AID2721]; type: functional; details: Homo sapiens
[7] = biological target: Intestinal-type alkaline phosphatase (Mus musculus, UniProt P24822); assay: PubChem AID 488785; type: functional
Intestinal-type alkaline phosphatase (Mus musculus, UniProt P24822), sequence (P24822 whole entry): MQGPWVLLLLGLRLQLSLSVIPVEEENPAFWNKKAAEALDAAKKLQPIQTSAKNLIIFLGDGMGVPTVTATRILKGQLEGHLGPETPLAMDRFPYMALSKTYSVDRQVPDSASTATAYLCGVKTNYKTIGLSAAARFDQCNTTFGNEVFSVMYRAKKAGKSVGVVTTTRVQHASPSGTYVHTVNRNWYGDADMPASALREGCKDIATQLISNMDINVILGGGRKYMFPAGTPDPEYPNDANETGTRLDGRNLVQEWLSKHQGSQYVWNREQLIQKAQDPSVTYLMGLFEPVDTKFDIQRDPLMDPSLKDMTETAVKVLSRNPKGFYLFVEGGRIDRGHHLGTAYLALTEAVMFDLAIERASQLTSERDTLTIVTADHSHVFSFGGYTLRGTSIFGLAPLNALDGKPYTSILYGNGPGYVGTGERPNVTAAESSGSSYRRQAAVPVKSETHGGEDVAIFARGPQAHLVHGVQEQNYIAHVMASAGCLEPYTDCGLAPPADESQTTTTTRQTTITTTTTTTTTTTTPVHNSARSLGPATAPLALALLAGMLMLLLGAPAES

[8] = biological target: T3, Intestinal-type alkaline phosphatase (Homo sapiens, UniProt P09923); assay: inhibition of human intestinal alkaline phosphatase – biochemical, dose response (AID 488876); type: functional
T3 sequence (P09923 whole entry): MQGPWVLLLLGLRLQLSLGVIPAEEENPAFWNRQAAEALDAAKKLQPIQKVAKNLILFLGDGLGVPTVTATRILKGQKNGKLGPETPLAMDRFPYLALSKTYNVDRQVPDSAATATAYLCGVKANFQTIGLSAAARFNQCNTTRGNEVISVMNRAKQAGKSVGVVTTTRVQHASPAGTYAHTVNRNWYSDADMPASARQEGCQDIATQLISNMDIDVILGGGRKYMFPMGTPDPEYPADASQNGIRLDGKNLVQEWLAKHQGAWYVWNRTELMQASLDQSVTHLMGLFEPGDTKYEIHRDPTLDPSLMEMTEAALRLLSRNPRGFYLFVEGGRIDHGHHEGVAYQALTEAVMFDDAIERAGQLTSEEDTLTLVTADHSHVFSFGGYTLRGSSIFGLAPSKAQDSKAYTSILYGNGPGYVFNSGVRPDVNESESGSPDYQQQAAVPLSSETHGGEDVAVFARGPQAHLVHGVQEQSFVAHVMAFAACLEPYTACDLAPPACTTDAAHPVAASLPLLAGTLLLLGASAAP

[9] = biological target: T4, Alkaline phosphatase, tissue-nonspecific isozyme (Homo sapiens, UniProt P05186); assay: TNAP enzyme inhibition by screening hits, dose response, selectivity assay for mouse IAP inhibitor project, biochemical, human TNAP, uHTS hits (AID 488906); type: functional
T4 sequence (P05186 whole entry): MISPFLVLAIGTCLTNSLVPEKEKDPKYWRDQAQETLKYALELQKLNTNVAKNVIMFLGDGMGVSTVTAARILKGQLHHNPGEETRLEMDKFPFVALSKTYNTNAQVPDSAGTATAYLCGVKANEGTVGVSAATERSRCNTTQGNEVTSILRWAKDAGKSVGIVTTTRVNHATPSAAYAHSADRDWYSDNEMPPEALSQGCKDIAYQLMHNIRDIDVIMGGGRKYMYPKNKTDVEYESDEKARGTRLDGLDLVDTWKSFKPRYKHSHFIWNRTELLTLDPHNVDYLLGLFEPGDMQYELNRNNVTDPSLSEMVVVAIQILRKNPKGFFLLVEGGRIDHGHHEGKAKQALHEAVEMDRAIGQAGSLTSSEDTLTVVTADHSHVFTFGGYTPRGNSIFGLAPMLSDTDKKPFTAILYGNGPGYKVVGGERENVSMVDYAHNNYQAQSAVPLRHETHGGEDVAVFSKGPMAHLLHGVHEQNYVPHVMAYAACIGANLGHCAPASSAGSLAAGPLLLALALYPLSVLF

Escherichia coli = assay: microbe, parasite or virus in culture
[10] = biological target: T5, Calpain-2 catalytic subunit (Sus scrofa, UniProt P43367); assay: pig calpain II inhibitor potency, dose response, biochemical, fluorogenic peptide substrate (AID 1420); type: functional
T5 sequence (P43367 whole entry): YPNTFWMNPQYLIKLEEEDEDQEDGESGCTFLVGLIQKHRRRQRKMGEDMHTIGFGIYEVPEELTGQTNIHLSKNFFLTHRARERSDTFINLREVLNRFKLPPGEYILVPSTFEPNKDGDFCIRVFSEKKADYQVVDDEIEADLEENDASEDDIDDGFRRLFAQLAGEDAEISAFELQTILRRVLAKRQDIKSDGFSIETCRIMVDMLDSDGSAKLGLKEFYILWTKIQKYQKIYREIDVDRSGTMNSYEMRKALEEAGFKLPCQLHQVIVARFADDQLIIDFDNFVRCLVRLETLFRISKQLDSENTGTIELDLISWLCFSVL

HEK293 [11] = assay: cells; details: Homo sapiens
Large T antigen = Large T antigen (Simian virus 40, UniProt P03070); type: functional, Betapolyomavirus macacae;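 further: Confirmatory-stage PubChem screen for compounds that inhibit SV40 T antigen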
HEK293 [12] = assay: cells; details: Homo sapiens; remark: listed apart in the source
[13] = biological target: T3, Intestinal-type alkaline phosphatase; assay: activation of human intestinal alkaline phosphatase – biochemical, dose response (AID 488873); type: functional
[14] = biological target: Dual specificity tyrosine-phosphorylation-regulated kinase 1A (Rattus norvegicus, UniProt Q63470); type: biochemical, Homo sapiens
Beta-galactosidase = Beta-galactosidase (Escherichia coli, UniProt Q8VNN2); assay: PubChem AID 485352; type: functional
Beta-galactosidase, sequence (Q8VNN2 whole entry): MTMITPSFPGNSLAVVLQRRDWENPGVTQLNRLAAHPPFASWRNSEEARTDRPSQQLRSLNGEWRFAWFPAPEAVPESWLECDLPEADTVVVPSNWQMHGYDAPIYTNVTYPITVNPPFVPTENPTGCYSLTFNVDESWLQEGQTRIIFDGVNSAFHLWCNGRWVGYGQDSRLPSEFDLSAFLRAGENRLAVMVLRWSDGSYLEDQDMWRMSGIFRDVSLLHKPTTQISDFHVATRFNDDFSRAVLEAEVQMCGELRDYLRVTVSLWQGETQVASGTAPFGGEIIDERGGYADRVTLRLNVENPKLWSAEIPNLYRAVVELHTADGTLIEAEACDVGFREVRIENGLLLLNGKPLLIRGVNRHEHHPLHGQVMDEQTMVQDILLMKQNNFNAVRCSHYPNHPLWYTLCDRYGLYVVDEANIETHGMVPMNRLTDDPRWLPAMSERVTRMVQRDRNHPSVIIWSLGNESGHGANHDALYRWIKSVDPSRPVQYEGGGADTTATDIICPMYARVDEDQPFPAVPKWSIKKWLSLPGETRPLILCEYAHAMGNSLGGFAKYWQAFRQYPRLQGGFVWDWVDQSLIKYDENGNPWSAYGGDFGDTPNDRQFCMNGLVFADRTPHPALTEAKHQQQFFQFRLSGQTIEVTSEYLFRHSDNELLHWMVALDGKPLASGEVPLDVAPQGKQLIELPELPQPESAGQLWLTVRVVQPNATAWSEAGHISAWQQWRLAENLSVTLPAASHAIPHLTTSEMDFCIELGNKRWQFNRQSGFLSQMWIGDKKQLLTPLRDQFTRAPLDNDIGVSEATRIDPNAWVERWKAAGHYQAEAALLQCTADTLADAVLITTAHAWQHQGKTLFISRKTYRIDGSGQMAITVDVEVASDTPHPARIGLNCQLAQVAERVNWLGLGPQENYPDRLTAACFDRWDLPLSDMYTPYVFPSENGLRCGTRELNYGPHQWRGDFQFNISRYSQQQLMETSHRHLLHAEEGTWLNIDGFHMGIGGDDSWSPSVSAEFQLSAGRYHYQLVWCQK

[15] = biological target: T6, Type-1 angiotensin II receptor (Homo sapiens, UniProt P30556); assay: AT1 receptor antagonists, dose response, selectivity assay for APJ receptor antagonist project, cell-based, uHTS hits (AID 463214); type: functional;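 further: antagonist potency against angiotensin II stimulated AT1 response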
T6 sequence (P30556 whole entry): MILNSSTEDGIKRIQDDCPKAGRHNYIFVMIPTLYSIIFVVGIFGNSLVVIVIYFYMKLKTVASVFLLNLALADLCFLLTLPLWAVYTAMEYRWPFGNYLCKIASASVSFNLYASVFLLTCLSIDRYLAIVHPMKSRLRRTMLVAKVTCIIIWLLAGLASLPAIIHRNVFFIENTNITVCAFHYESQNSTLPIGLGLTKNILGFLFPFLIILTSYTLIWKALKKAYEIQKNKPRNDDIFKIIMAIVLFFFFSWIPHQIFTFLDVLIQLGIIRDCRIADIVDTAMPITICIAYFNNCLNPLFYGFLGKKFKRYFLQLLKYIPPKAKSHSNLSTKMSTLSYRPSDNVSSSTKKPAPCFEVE

[16] = biological target: Heat shock protein HSP 90-alpha (Homo sapiens, UniProt P07900); type: functional, organism-based
Streptokinase A = biological target: T7, Streptokinase A (Streptococcus pyogenes serotype M1, UniProt P10520); assay: S. pyogenes streptokinase expression inhibitors, potency, dose response, plasminogen activation absorbance, OD405 (AID 1914); type: functional, Streptococcus pyogenes M1 GAS;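 further: secreted streptokinase activity via plasminogen activation per viability signal from cell pellet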
T7 sequence (P10520 whole entry): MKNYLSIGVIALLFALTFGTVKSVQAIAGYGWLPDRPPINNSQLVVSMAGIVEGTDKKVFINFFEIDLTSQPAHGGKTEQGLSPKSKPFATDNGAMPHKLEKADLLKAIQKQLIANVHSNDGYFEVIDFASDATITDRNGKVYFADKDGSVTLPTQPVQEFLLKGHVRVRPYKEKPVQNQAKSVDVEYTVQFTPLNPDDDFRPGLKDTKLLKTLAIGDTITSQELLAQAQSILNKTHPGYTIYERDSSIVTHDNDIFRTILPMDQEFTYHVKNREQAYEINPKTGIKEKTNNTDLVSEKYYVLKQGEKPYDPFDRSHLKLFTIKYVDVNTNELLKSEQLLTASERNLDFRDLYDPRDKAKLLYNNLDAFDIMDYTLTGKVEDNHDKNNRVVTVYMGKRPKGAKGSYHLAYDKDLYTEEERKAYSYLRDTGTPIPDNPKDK

[17] = tested on: Streptococcus sp. 'group A'; assay: growth inhibition of control SK(-) GAS strain, dose response, counter-screen for streptokinase expression inhibitor project, luminescence, kanamycin, BacTiterGlo, confirmation (AID 1900); type: functional, organism-based
Streptococcus = assay: Group A Streptococcus viability loss, dose response, counter-screen for streptokinase expression inhibitor project, luminescence, BacTiterGlo (AID 1915); type: functional, organism-based;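 further: potency for reduction of bacterial viability or growth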
[18] = biological target: Cyclin-dependent kinase 5/CDK5 activator 1 (Homo sapiens, UniProt Q00535); assay: CDK5/p35 kinase inhibitors, dose response, biochemical, cherry-picked samples, set 2 (AID 504545)
Cyclin-dependent kinase 5/CDK5 activator 1, sequence (Q00535 whole entry): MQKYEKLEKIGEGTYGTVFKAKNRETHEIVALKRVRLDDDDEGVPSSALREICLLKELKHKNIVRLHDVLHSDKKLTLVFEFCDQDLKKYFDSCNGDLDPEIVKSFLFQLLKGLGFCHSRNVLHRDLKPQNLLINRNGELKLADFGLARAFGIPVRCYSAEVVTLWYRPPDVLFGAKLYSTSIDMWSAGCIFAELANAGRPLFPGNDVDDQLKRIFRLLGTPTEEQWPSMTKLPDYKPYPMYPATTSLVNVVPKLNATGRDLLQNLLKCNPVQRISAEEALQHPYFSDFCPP
Cyclin-dependent kinase 5/CDK5 activator 1, sequence (Q15078 whole entry, further chain): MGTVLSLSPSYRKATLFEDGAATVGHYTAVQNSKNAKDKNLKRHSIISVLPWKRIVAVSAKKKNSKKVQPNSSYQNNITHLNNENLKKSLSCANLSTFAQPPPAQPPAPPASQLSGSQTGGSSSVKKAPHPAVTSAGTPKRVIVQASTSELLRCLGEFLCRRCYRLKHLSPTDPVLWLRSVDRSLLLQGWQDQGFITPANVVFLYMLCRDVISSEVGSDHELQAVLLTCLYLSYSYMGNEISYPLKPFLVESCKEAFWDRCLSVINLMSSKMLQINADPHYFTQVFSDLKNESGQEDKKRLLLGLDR

[19] = HEp-2 cell cytotoxicity, dose response, cytotoxicity control for RSV inhibitor project, HTS (AID 2410); type: functional; details: human respiratory syncytial virus

COc1cccc(C(=O)Nc2ccc3c(c2)C(=O)c2ccccc2C3=O)c1
EC50 [1]: > 92.5 µM (inactive)
EC50 (Mu-type opioid receptor): > 92.5 µM (inactive)
EC50 [2]: > 92.5 µM (inactive)
IC50 [3]: 1.82 µM (active)
IC50 [4]: 6.16 µM (active)

N#Cc1c(NC(=O)C2CC(c3ccccc3Cl)=NO2)sc2c1CCC2 (stereo not given)
IC50 (Cysteine protease ATG4B): 4.36 µM (active)
IC50 (Phospholipase A2): 3.48 µM (active)

COc1ccc(NC(=O)/C(C#N)=C\C=C\c2ccco2)cc1
AC50 [5]: 23.1 µM (active)
AC50 [6]: 1.36 µM (active)

CCN(c1ccccc1)S(=O)(=O)c1ccc2[nH]c(=O)[nH]c2c1
IC50 [7]: 3.89 µM (active)
IC50 [8]: 33.8 µM (active)
IC50 [9]: 24.9 µM (active)

CCCN(Cc1ccccc1)C(S)=Nc1ccc(SC(F)F)cc1
AC50 (Escherichia coli): 41.9 µM (active)
IC50 [10]: 18.1 µM (not active)

O=c1oc2cc(O)ccc2s1 [TIOXOLONE]
EC50 (HEK293 [11]): > 59.6 µM (inactive)
IC50 [7]: 2.59 µM (active)
IC50 (Large T antigen): 19 µM (active)
EC50 (HEK293 [12]): > 59.6 µM (inactive)
IC50 [9]: > 100 µM (inactive)
EC50 [13]: 8.33 µM (active)

O=C(Nc1cccc(-c2nn[nH]n2)c1)c1ccc(Cl)s1
AC50 [14]: 1.44 µM (active)

CCOc1ccc(C2=CS/C(=C(\C#N)c3nnc4n3CCCCC4)N2CC)cc1
IC50 (Cysteine protease ATG4B): 13 µM (active)
IC50 (Phospholipase A2): 8.21 µM (active)

Fc1ccc(N/N=C/c2ccncc2)c(F)c1
AC50 [5]: 102 µM (active)
AC50 [6]: 43.7 µM (active)

Cc1ccc(C(=O)COC(=O)c2cnccn2)cc1[N+](=O)[O-]
EC50 (Beta-galactosidase): > 40 µM (inactive)
IC50 [15]: 38.5 µM (not active)

COc1cc(/C=C2\SC(=S)N(N3CCOCC3)C2=O)ccc1O
EC50 (Beta-galactosidase): > 40 µM (inactive)
IC50 [15]: > 40 µM (not active)

O=C1OCC(CO)(CO)N=C1NNc1ccc(Cl)c(Cl)c1
EC50 (Beta-galactosidase): > 40 µM (inactive)
IC50 [15]: 16.6 µM (active)
AC50 [16]: 2.31 µM (active)

COC(=O)C1=CO[C@@H](C)[C@@H]2CN(CCc3c[nH]c4ccccc34)CC[C@H]12
EC50 [1]: > 92.4 µM (inactive)
EC50 (Mu-type opioid receptor): > 92.4 µM (inactive)
EC50 [2]: > 92.4 µM (inactive)

CCc1nn(CCCC(=O)NCc2ccccc2Br)c(=O)c2cc3occc3n12
EC50 (Streptokinase A): > 150 µM (not active)
IC50 (Cysteine protease ATG4B): 16.8 µM (active)
EC50 [17]: 1.12 µM (active)
EC50 (Streptococcus): > 150 µM (not active)
IC50 (Phospholipase A2): 20 µM (inactive)

COc1ccc2nc3c(cc2c1)c(NC(=O)c1cccs1)nn3CC(C)C
AC50 [18]: 4.21 µM (active)
AC50 [14]: 0.43 µM (active)

CC[C@@]12C(=O)N(c3cccc(Br)c3)C(=O)N1[C@H](c1ccc(Cl)cc1)[C@@H]1C(=O)N(C3CCCCC3)C(=O)[C@@H]12
CC50 [19]: > 50 µM (active)
EC50 (HEK293 [11]): > 59.6 µM (inactive)
EC50 (HEK293 [12]): > 59.6 µM (inactive)
